This note sets out measurements from patent publication US9468642B2, “Imidazopyrazines” (BAYER INTELLECTUAL PROPERTY GMBH, priority 2011, dated 2016).

The IC50 is the concentration needed to halve the response being measured.

In this assay the target is human kinase Mps-1 (Homo sapiens (Human), UniProt P33981). Kind of assay: Mps-1 Kinase Assay (TR-FRET). It is filed as biochemical. The following applies: N-terminally GST-tagged human full length recombinant Mps-1; 10 μM ATP; 1 μM peptide substrate; 60 min at 22° C.; read-out: Mps1 IC50. The procedure: The human kinase Mps-1 phosphorylates a biotinylated substrate peptide. Detection of the phosphorylated product is achieved by time-resolved fluorescence resonance energy transfer (TR-FRET) from Europium-labelled anti-phospho-Serine/Threonine antibody as donor to streptavidin labelled with cross-linked allophycocyanin (SA-XLent) as acceptor. Compounds are tested for their inhibition of the kinase activity.
human kinase Mps-1, sequence (P33981 whole entry): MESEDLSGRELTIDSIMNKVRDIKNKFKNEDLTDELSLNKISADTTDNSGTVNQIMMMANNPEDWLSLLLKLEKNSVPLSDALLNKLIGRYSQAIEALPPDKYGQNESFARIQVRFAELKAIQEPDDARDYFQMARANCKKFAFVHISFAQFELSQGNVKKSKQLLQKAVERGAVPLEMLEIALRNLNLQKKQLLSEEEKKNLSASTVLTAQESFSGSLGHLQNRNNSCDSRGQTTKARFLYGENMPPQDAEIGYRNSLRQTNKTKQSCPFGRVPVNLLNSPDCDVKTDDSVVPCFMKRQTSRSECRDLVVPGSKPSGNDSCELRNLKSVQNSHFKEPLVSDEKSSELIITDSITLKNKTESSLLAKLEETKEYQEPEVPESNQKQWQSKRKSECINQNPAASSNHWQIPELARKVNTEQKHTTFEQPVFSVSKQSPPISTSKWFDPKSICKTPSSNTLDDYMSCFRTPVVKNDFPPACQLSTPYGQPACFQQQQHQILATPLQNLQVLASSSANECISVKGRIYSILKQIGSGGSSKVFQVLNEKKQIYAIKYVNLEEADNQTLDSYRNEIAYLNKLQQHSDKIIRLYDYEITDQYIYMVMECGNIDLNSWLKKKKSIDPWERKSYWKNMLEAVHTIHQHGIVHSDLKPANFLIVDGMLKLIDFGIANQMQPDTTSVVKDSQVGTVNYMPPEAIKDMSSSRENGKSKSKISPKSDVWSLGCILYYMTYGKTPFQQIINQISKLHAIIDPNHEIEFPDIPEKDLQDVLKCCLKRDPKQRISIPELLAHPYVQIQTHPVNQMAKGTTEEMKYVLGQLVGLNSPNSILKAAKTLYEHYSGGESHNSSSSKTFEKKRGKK
N-terminally GST-tagged human full length recombinant Mps-1 kinase (purchased from Invitrogen, Karslruhe, Germany, cat. no PV4071) was used. As substrate for the kinase reaction a biotinylated peptide of the amino-acid sequence […] (C-terminus in amide form, purchased from Biosynthan GmbH, Berlin) was used.
The concentration of Mps-1 in the assay was adjusted to the activity of the enzyme lot and was chosen appropriate to have the assay in the linear range, typical enzyme concentrations were in the range of about 1 nM (final conc. in the 5 μl assay volume).
The resulting mixture was incubated 1 h at 22° C. to allow the binding of the phosphorylated peptide to the anti-phospho(Ser/Thr)-Europium-antibody. Subsequently the amount of phosphorylated substrate was evaluated by measurement of the resonance energy transfer from the Europium-labelled anti-phospho(Ser/Thr) antibody to the Streptavidin-XLent.
(In general: TR-FRET usually uses a lanthanide donor and a delayed reading to cut background.)
As to `CCCS(=O)(=O)c1nc(-c2ccccc2)cn2c(-c3ccc(C(=O)NC4CC4)cc3)cnc12` [Example 7B, N-Cyclopropyl-4-[6-phenyl-8-(propylsulfonyl)imidazo[1,2-a]pyrazin-3-yl]benzamide], the IC50 amounted to 0.0101 µM. The figure for `O=C(NC1CC1)c1ccc(-c2cnc3c(S(=O)(=O)CCCCO)nc(-c4ccccc4)cn23)cc1` [Example 36, N-cyclopropyl-4-{8-[(4-hydroxybutyl)sulfonyl]-6-phenylimidazo[1,2-a]pyrazin-3-yl}benzamide] is 0.0051 µM; for `CC(C)CC[S+]([O-])c1nc(-c2ccccc2)cn2c(-c3ccc(C(=O)NC4CC4)cc3)cnc12` (racemic) [Example 24A, (RS) N-cyclopropyl-4-{8-[(3-methylbutyl)sulfinyl]-6-phenylimidazo[1,2-a]pyrazin-3-yl}benzamide] it is 0.0145 µM; for `CC(C)(C)CCS(=O)(=O)c1nc(-c2ccccc2)cn2c(-c3ccc(C(=O)NC4CC4)cc3)cnc12` [Example 11B, N-Cyclopropyl-4-{8-[(3,3-dimethylbutyl)sulfonyl]-6-phenylimidazo[1,2-a]pyrazin-3-yl}benzamide] it is 0.0043 µM. The figure for `CCCCCS(=O)(=O)c1nc(-c2ccccc2)cn2c(-c3ccc(C(=O)NC4CC4)cc3)cnc12` [Example 18B, N-cyclopropyl-4-[8-(pentylsulfonyl)-6-phenylimidazo[1,2-a]pyrazin-3-yl]benzamide] is 0.0075 µM; for `O=C(NC1CC1)c1ccc(-c2cnc3c(SCC4CCCO4)nc(-c4ccccc4)cn23)cc1` (racemic) [Example 12, (RS) N-Cyclopropyl-4-{6-phenyl-8-[(tetrahydrofuran-2-ylmethyl)sulfanyl]imidazo[1,2-a]pyrazin-3-yl}benzamide] it is 0.008 µM; for “(1S or 1R)-1-(4-{3-[4-(2-cyclopropyl-1H-imidazol-5-yl)phenyl]-8-(methylsulfanyl)imidazo[1,2-a]pyrazin-6-yl}phenyl)ethanol [Example 34C]” it is 0.095 µM.

On to `CCCCSc1nc(-c2ccccc2)cn2c(-c3ccc(C(=O)NC4CC4)cc3)cnc12` [Example 8, 4-[8-(Butylsulfanyl)-6-phenylimidazo[1,2-a]pyrazin-3-yl]-N-cyclopropylbenzamide], for which the IC50 was determined as 0.0263 µM. For `C[S+]([O-])c1nc(-c2ccccc2)cn2c(-c3ccc(C(=O)NC4CC4)cc3)cnc12` (racemic) [Example 3B, (RS)—N-cyclopropyl-4-[8-(methylsulfinyl)-6-phenylimidazo[1,2-a]pyrazin-3-yl]benzamide] the value was 0.0089 µM.

Consider `CC(C)CSc1nc(-c2ccccc2)cn2c(-c3ccc(C(=O)NC4CC4)cc3)cnc12` [Example 21, N-cyclopropyl-4-[8-(isobutylsulfanyl)-6-phenylimidazo[1,2-a]pyrazin-3-yl]benzamide], for which the IC50 was found to be 0.0132 µM. The figure for `CC(C)Sc1nc(-c2ccccc2)cn2c(-c3ccc(C(=O)NC4CC4)cc3)cnc12` [Example 19, N-cyclopropyl-4-[8-(isopropylsulfanyl)-6-phenylimidazo[1,2-a]pyrazin-3-yl]benzamide] is 0.0223 µM. The figure for `CC(C)CCSc1nc(-c2ccccc2)cn2c(-c3ccc(C(=O)NC4CC4)cc3)cnc12` [Example 23, N-cyclopropyl-4-{8-[(3-methylbutyl)sulfanyl]-6-phenylimidazo[1,2-a]pyrazin-3-yl}benzamide] is 0.0252 µM. The figure for `CCSc1nc(-c2ccccc2)cn2c(-c3ccc(C(=O)NC4CC4)cc3)cnc12` [Example 4, N-Cyclopropyl-4-[8-(ethylsulfanyl)-6-phenylimidazo[1,2-a]pyrazin-3-yl]benzamide] is 0.0222 µM.

In the case of `O=C(NC1CC1)c1ccc(-c2cnc3c([S+]([O-])CC(F)(F)F)nc(-c4ccccc4)cn23)cc1` (racemic) [Example 26A, (RS) N-cyclopropyl-4-{6-phenyl-8-[(2,2,2-trifluoroethyl)sulfinyl]imidazo[1,2-a]pyrazin-3-yl}benzamide], the IC50 was found to be 0.0062 µM.

For `O=C(NC1CC1)c1ccc(-c2cnc3c(S(=O)(=O)CC(F)(F)F)nc(-c4ccccc4)cn23)cc1` [Example 26B, N-cyclopropyl-4-{6-phenyl-8-[(2,2,2-trifluoroethyl)sulfonyl]imidazo[1,2-a]pyrazin-3-yl}benzamide], the IC50 stood at 0.0081 µM. The figure for `CC(C)CCS(=O)(=O)c1nc(-c2ccccc2)cn2c(-c3ccc(C(=O)NC4CC4)cc3)cnc12` [Example 24B, N-cyclopropyl-4-{8-[(3-methylbutyl)sulfonyl]-6-phenylimidazo[1,2-a]pyrazin-3-yl}benzamide] is 0.0065 µM; for `CCCSc1nc(-c2ccccc2)cn2c(-c3ccc(C(=O)NC4CC4)cc3)cnc12` [Example 6, N-Cyclopropyl-4-[6-phenyl-8-(propylsulfanyl)imidazo[1,2-a]pyrazin-3-yl]benzamide] it is 0.011 µM; for `CS(=O)(=NC(=O)C(F)(F)F)c1nc(-c2ccccc2)cn2c(-c3ccc(C(=O)NC4CC4)cc3)cnc12` (racemic) [Example 15, (RS) N-cyclopropyl-4-{8-[S-methyl-N-(trifluoroacetyl)sulfonimidoyl]-6-phenylimidazo[1,2-a]pyrazin-3-yl}benzamide] it is 0.0052 µM.

Take `CCC[S+]([O-])c1nc(-c2ccccc2)cn2c(-c3ccc(C(=O)NC4CC4)cc3)cnc12` (racemic) [Example 7A, (RS) N-Cyclopropyl-4-[6-phenyl-8-(propylsulfinyl)imidazo[1,2-a]pyrazin-3-yl]benzamide]: the IC50 amounted to 0.02 µM.

As for `O=C(NC1CC1)c1ccc(-c2cnc3c(SCCCCO)nc(-c4ccccc4)cn23)cc1` [Example 35, N-cyclopropyl-4-{8-[(4-hydroxybutyl)sulfanyl]-6-phenylimidazo[1,2-a]pyrazin-3-yl}benzamide], the concentration for half-maximal inhibition (IC50) was found to be 0.0037 µM. The figure for `CC(=O)NCCSc1nc(-c2ccccc2)cn2c(-c3ccc(C(=O)NC4CC4)cc3)cnc12` [Example 33] is 0.0199 µM.

For `CCCCS(=O)(=O)c1nc(-c2ccccc2)cn2c(-c3ccc(C(=O)NC4CC4)cc3)cnc12` [Example 9B, 4-[8-(Butylsulfonyl)-6-phenylimidazo[1,2-a]pyrazin-3-yl]-N-cyclopropylbenzamide], the IC50 came to 0.014 µM. For `C=Cc1ccc(-c2cn3c(-c4ccc(-c5cnc(C6CC6)[nH]5)cc4)cnc3c(SC)n2)cc1` [Example 30, 3-[4-(2-cyclopropyl-1H-imidazol-5-yl)phenyl]-8-(methylsulfanyl)-6-(4-vinylphenyl)imidazo[1,2-a]pyrazine] the value was 3.1 µM. Turning to `CC(C)S(=O)(=O)c1nc(-c2ccccc2)cn2c(-c3ccc(C(=O)NC4CC4)cc3)cnc12` [Example 20B, N-cyclopropyl-4-[8-(isopropylsulfonyl)-6-phenylimidazo[1,2-a]pyrazin-3-yl]benzamide], the half-inhibitory concentration (IC50) was 0.0139 µM. As for `O=C(NC1CC1)c1ccc(-c2cnc3c(S(=O)(=O)Cc4ccco4)nc(-c4ccccc4)cn23)cc1` [Example 28B, N-cyclopropyl-4-{8-[(2-furylmethyl)sulfonyl]-6-phenylimidazo[1,2-a]pyrazin-3-yl}benzamide], the half-inhibitory concentration (IC50) worked out at 0.0071 µM. Consider `CC(C)C[S+]([O-])c1nc(-c2ccccc2)cn2c(-c3ccc(C(=O)NC4CC4)cc3)cnc12` (racemic) [Example 22A, (RS) N-cyclopropyl-4-[8-(isobutylsulfinyl)-6-phenylimidazo[1,2-a]pyrazin-3-yl]benzamide], for which the IC50 is 0.0127 µM.
